Molecules are shown by their SMILES. Several values for one entry are separate records, joined by “and”; a condition that tells them apart may be missing. Equal entries are not always repeated. Entries after “also recorded” stand apart in the source; their conditions may differ.

Experiment [1] concerns the target T1, TMEM175 (Homo sapiens, UniProt Q9BSA9).
T1 sequence (Q9BSA9 1-504): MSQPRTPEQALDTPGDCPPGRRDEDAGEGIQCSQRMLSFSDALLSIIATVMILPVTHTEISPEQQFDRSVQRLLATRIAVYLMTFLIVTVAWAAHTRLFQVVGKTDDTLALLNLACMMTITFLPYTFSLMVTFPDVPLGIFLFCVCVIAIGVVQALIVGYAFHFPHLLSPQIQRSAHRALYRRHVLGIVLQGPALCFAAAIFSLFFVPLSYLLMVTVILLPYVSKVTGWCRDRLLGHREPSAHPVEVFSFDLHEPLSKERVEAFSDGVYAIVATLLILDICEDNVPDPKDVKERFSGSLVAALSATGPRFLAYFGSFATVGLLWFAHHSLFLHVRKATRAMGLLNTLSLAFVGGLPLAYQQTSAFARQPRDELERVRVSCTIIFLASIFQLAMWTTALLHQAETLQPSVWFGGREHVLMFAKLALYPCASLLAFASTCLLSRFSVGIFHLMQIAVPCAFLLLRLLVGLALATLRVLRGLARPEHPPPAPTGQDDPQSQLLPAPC
The experiment can be described thus: SSME K+ flux compound assay on purified lysosomes overexpressing TMEM175 (SURFE2R 96SE). The experiment is classed as biochemical. The following applies: for Relative current / maximum potentiation, SSME: Imax of dose-response curve, baseline 100%, (50 µM). Here is the method:
In brief, compound measurements using SSME are performed in a three-step process (Figure 6B). First, TMEM175-mediated K^+ translocation is measured through 50 mM K^+ concentration jumps. This represents the baseline current of TMEM175 activity (I0). […] Third, the activation through a 50 mM K^+ concentration jump is repeated, this time in the presence of the compound to record the modulated TMEM175 current (I). In this process, each individual sensor of the 96-well sensor plate is only exposed to a single concentration of the compound. The relative current amplitude I/I0 is used as a measure of the compound effect and averaged across sensors.
We applied 50 mM K^+ concentration jumps in the absence and presence of different compound concentrations to derive information about compound effects on K^+ flux through TMEM175; (B) Time dependence of recorded peak current amplitudes for the complete workflow, which involves multiple sequential measurements. […] The recording of each sensor well starts with the application of a control measurement, rinsing non-activating solution across the sensor (baseline recording). Afterwards, we performed three solution exchange measurements from 50 mM NaCl to 50 mM KCl to measure K^+ flux through TMEM175 (baseline TMEM175 current, I0). We then rinsed the sensor with non-activating solution containing the compound at a given concentration, followed by incubation of 15 min to equilibrate the sensors with the compound. Subsequently, the solution exchange from 50 mM NaCl to 50 mM KCl is repeated twice, but in the presence of the given compound concentration to determine the modulated peak current I. Afterwards, we repeated the measurement in the absence of the compound three times (wash-out) to recover the non-modulated TMEM175 current. We subtracted the average artifact current recorded with control lysosomes from I and I0 (Figure 1K), without considering off-target effects of the tested compound. […] Success rates were determined based on the QC criteria provided in the Methods section. […] We determined average values, AVGpos and AVGneg, and standard deviations, SDpos and SDneg, of the recorded peak currents. […] Error bars represent the SEM obtained from automated data analysis using DataControl96, based on variations of the currents obtained with the TMEM175 sample. Each compound concentration was recorded with at least N = 8 sensors. […] Imin was always fixed to 0 for inhibitors or 1 for enhancers, as indicated. […] A total of 50 µL of 0.1 mM octadecanethiol in isopropanol was added to each sensor well, following incubation for 30 min at room temperature to form an alkanethiol monolayer on the sensor surface. Subsequently, the sensors were washed twice with isopropanol and three times with ddH2O, before dry-tapping on a tissue. The subsequent process of sensor coating with lipid and lysosomes was carried out manually for the SURFE^2R N1 and automated with the SURFE^2R 96SE serving as a pipetting robot. In both cases, 1.5 µL of 7.5 mg/mL 1,2-diphytanoyl-sn-glycero-3-phosphocholine (DPhPC) in n-decane was added to the center of the circular gold surface, followed by the addition of 50 µL of non-activating solution to form the SSM. The composition of the non-activating solution was adjusted for each experiment (Table 2). […] SSM-coated 96-well sensor plates were stored at −80 °C before use.

Experiment [2] has as its system TMEM175. The following applies: 100 µM, whole-cell configuration, +80 mV; ref [6]; cited from earlier work.
Experiment [3] has as its target T1, TMEM175. The experiment can be described thus: Whole-cell automated patch-clamp (APC) Cs+ flux assay, SyncroPatch 384i, HEK293 overexpressing TMEM175. The experiment is classed as cell-based. The procedure: To validate the APC assay, we compared currents between TMEM175-overexpressing cells and control HEK293 UT cells. […] In our compound application protocol, which was used to evaluate compound potencies, we consistently administered tool compounds to assess their impact on TMEM175 activity (Figure 7C).
The voltage protocol generation and data collection were performed with PatchControl384 v1.9.0 and analyzed with DataControl384 v2.2.0. A multi-hole, medium resistance chip with four patch-clamp holes per well was used for recording.
DMSO remained constant at 0.2% and BSA at 0.05% in the external solution throughout the assay, if not stated otherwise.
The voltage protocol applied for the investigation of the tool compounds (Figure 7) consisted of a 500 ms ramp from −80 mV to +80 mV, followed by a 400 ms step from −80 mV to +80 mV before returning to the holding potential of 0 mV (Figure 7B). The maximum outward current amplitude obtained at +80 mV from the ramp section was used for analysis. To investigate the blinded test compounds (Figure 8), an alternative voltage protocol was applied. […] The maximum outward current amplitude obtained at 0 mV from the voltage step section was used for analysis. In both voltage protocols, voltage sweeps were repeated every 10 s and currents sampled at 10 kHz.
The application protocol for agonists consisted of two additions of extracellular physiological solution for a minimum of 3 min, followed by the external application of the test compound for a minimum of 2 min (Figure 7C).
Currents recorded after compound addition were normalized to the baseline current before compound addition, averaged, and plotted over the compound concentration to determine the EC50 and IC50 values.
Background: In patch-clamp work, channel activity is measured electrically.

The target of experiment [4] is T1, TMEM175. The experiment can be described thus: SSME H+ flux assay (pH jumps) on TMEM175 lysosomes (SURFE2R N1). The following applies: corresponding to ~pH 5; read-out: EC50 of H+ influx current vs Δc(H+). The experiment is classed as biochemical. The source says:
To further investigate the capability of TMEM175 to translocate protons using SSME, we performed H^+ concentration or pH jumps using the SURFE^2R N1. The non-activating solution was set to pH 7.6, defining both the lysosomal and cytosolic pH before the start of the experiment. By exchanging the non-activating for the activating solution, we acidified the cytosolic solution and stimulated H^+ influx through TMEM175 (Figure 5A).
However, the application of pH jumps lead to significant artifact currents of positive magnitude, as observed with the control lysosomes (Figure 5C). These artifacts are a result of protons interacting with the lipid membranes and/or unknown H^+ leak pathways through the lysosomal membrane. To conclude pure TMEM175-related H^+ currents, we subtracted the artifact currents from the currents recorded with the TMEM175 sample. When plotting ΔpH against the artifact-corrected average TMEM175 net H^+ current, we obtain a close-to-linear correlation (Figure 5D).
For comparison with the I/c curve reported for K^+ (Figure 3E), we calculated the difference in H^+ concentration across the lysosomal membrane Δc = cH^out − cH^in, which correlates linearly with the passive H^+ flux J = PH+Δc according to Fick’s law.
We used H^+ concentration or pH jumps to measure H^+ flux through TMEM175. Non-activating solution was set to pH 7.6, while activating solution contained different pH values between pH 7.4 and pH 4.6; (B) Representative current traces induced by pH jumps on lysosomes overexpressing TMEM175. All current traces were recorded with the same sensor, starting from the lowest ΔpH. […] The remaining current mostly reflects the background (artifact) current after full block of TMEM175; (C) Representative current traces from the same experiment on control lysosomes. […] This represents the artifact current also underlying the currents recorded with the TMEM175 sample; (D) SEM and average, artifact-corrected, normalized peak currents from N = 4 sensors, reflecting the H^+ flux through TMEM175, solely driven by the pH gradient. […]

On to `CCCCC/C=C\C/C=C\C/C=C\C/C=C\CCCC(=O)O` [Arachidonic Acid, arachidonic acid], for which the “Potency in SSME relative to APC (more potent in SSME)” value in experiment [1] (EC50 APC / EC50 SSME) came to 40 fold. Besides, the “Relative current / maximum potentiation, SSME” value is 168 ± 5% (50 µM) in experiment [1] and 168 ± 5% in experiment [1] (listed as arachidonic acid). Besides, the EC50 was 2.3 µM and 2.25 µM in experiment [1] (tool enhancers, K+ flux, 50 mM K+ jump, pH 7.6, 0 mV, artifact-corrected, read-out: Half saturation (EC50), SSME); 83 µM in experiment [3] (tool compounds, Cs+ flux, outward current at +80 mV, 0.05% BSA, read-out: Half saturation (EC50), APC). The “Increase in K+ flux through TMEM175, literature” value in experiment [2] is listed as 14 fold. In addition, the “Relative current, APC” value in experiment [3] (enhancer, (30 µM), relative to baseline current (100%)) is reported as 137 ± 6% (30 µM). The “EC50 and maximum potentiation in the absence of BSA, APC” value in experiment [3] (no BSA vs 0.05% BSA) is given as “did not affect; also recorded: unaltered”. Also, the “Maximum potentiation (increase in TMEM175 activity), APC” value in experiment [3] (standard assay with 0.05% BSA) stood at 34%.
On to `[H+]` [H^+], for which the EC50 in experiment [4] is 9.5 µM.

The values are drawn from paper PMC10454728, “A Comparative Study on the Lysosomal Cation Channel TMEM175 Using Automated Whole-Cell Patch-Clamp, Lysosomal Patch-Clamp, and Solid Supported Membrane-Based Electrophysiology: Functional Characterization and High-Throughput Screening Assay Development” (International Journal of Molecular Sciences, 2023).
